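Test compounds were applied to cells in 96-well plates for 48 hours at 5 doses. GI50: concentration for 50% inhibition of growth. The concentration for full growth arrest is given as TGI.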
Tests used:
Assay in all cases: NCI tumour cell line growth inhibition, 48 h
[1] = tested on: SNB-75 CNS
[2] = tested on: HCC-2998 colon
[3] = tested on: SW-620 colon
[4] = tested on: BT-549 breast
[5] = tested on: IGROV1 ovarian
[6] = tested on: HCT-15 colon
[7] = tested on: NCI/ADR-RES ovarian
[8] = tested on: SN12C renal
[9] = tested on: MCF7 breast
[10] = tested on: UACC-257 melanoma
[11] = tested on: SNB-19 CNS
[12] = tested on: PC-3 prostate
[13] = tested on: SF-268 CNS
[14] = tested on: SK-MEL-5 melanoma
[15] = tested on: SK-MEL-2 melanoma
[16] = tested on: NCI-H460 lung
[17] = tested on: RPMI-8226 leukemia
[18] = tested on: HOP-62 NSCLC
[19] = tested on: CCRF-CEM leukemia
[20] = tested on: SK-MEL-28 melanoma
[21] = tested on: HL-60(TB) leukemia
[22] = tested on: TK-10 renal
[23] = tested on: LOX IMVI melanoma
[24] = tested on: A549 NSCLC
[25] = tested on: A498 renal
[26] = tested on: NCI-H522 lung
[27] = tested on: SR leukemia
[28] = tested on: MALME-3M melanoma
[29] = tested on: SF-539 CNS
[30] = tested on: NCI-H23 lung
[31] = tested on: HOP-92 NSCLC
[32] = tested on: MDA-MB-231 breast
[33] = tested on: OVCAR-3 ovarian
[34] = tested on: OVCAR-4 ovarian
[35] = tested on: ACHN renal
[36] = tested on: T-47D breast
[37] = tested on: HCT-116 colon
[38] = tested on: SF-295 CNS
[39] = tested on: EKVX NSCLC
[40] = tested on: K-562 leukemia
[41] = tested on: MDA-MB-435
[42] = tested on: OVCAR-8 ovarian
[43] = tested on: NCI-H226 lung
[44] = tested on: SK-OV-3 ovarian
[45] = tested on: COLO 205 colon
[46] = tested on: U251 CNS
[47] = tested on: UACC-62 melanoma
[48] = tested on: M14 melanoma
[49] = tested on: DU-145 prostate
[50] = tested on: UO-31 renal
[51] = tested on: HT29 colon
[52] = tested on: OVCAR-5 ovarian
[53] = tested on: MOLT-4 leukemia
[54] = tested on: KM12 colon
[55] = tested on: CAKI-1 renal
[56] = tested on: HS 578T breast
[57] = tested on: 786-0 renal

Cn1ncc2ncc(-c3ccc4ncc(C#N)c(N5CCc6cc(F)c(Cl)cc65)c4c3)cc21
GI50 [1]: 0.769 µM
TGI [1]: 5.47 µM
GI50 [2]: 3.26 µM
TGI [2]: > 100 µM
GI50 [3]: 7.04 µM
TGI [3]: > 100 µM
GI50 [4]: 3.75 µM
TGI [4]: 85.6 µM
GI50 [5]: 1.22 µM
TGI [5]: 4.61 µM
GI50 [6]: 3.49 µM
TGI [6]: > 100 µM
GI50 [7]: 3.27 µM
TGI [7]: > 100 µM
GI50 [8]: 1.93 µM
TGI [8]: > 100 µM
GI50 [9]: 2.44 µM
TGI [9]: > 100 µM
GI50 [10]: 9.46 µM
TGI [10]: > 100 µM
GI50 [11]: 6.72 µM
TGI [11]: > 100 µM
GI50 [12]: 2.27 µM
TGI [12]: > 100 µM
GI50 [13]: 4.11 µM
TGI [13]: > 100 µM
GI50 [14]: 6.97 µM
TGI [14]: 21.9 µM
GI50 [15]: 5.65 µM
TGI [15]: 37.7 µM
GI50 [16]: 4.93 µM
TGI [16]: > 100 µM
GI50 [17]: 3.28 µM
TGI [17]: > 100 µM
GI50 [18]: 2.74 µM
TGI [18]: > 100 µM
GI50 [19]: 4.62 µM
TGI [19]: > 100 µM
GI50 [20]: 4.92 µM
TGI [20]: > 100 µM
GI50 [21]: 7.84 µM
TGI [21]: > 100 µM
GI50 [22]: 9.02 µM
TGI [22]: > 100 µM
GI50 [23]: 2.26 µM
TGI [23]: 38.4 µM
GI50 [24]: 4.05 µM
TGI [24]: > 100 µM
GI50 [25]: 2.61 µM
TGI [25]: 7.7 µM
GI50 [26]: 3.28 µM
TGI [26]: > 100 µM
GI50 [27]: 3.67 µM
TGI [27]: > 100 µM
GI50 [28]: 2.14 µM
TGI [28]: 14.9 µM
GI50 [29]: 3.78 µM
TGI [29]: 61.7 µM
GI50 [30]: 4.8 µM
TGI [30]: > 100 µM
GI50 [31]: 2.27 µM
TGI [31]: 8.75 µM
GI50 [32]: 2.6 µM
TGI [32]: 28.1 µM
GI50 [33]: 2.66 µM
TGI [33]: 83.6 µM
GI50 [34]: 2.64 µM
TGI [34]: 31.5 µM
GI50 [35]: 2.49 µM
TGI [35]: > 100 µM
GI50 [36]: 2.03 µM
TGI [36]: 31.1 µM
GI50 [37]: 9.79 µM
TGI [37]: > 100 µM
GI50 [38]: 2.57 µM
TGI [38]: > 100 µM
GI50 [39]: 2.35 µM
TGI [39]: 14.6 µM
GI50 [40]: 4.73 µM
TGI [40]: > 100 µM
GI50 [41]: 3.13 µM
TGI [41]: 11.8 µM
GI50 [42]: 4.47 µM
TGI [42]: > 100 µM
GI50 [43]: 1.86 µM
TGI [43]: 20.9 µM
GI50 [44]: 2.71 µM
TGI [44]: > 100 µM
GI50 [45]: 5.8 µM
TGI [45]: > 100 µM
GI50 [46]: 5.46 µM
TGI [46]: > 100 µM
GI50 [47]: 1.65 µM
TGI [47]: 11.7 µM
GI50 [48]: 6.02 µM
TGI [48]: > 100 µM
GI50 [49]: 4.05 µM
TGI [49]: > 100 µM
GI50 [50]: 0.251 µM
TGI [50]: 10.5 µM
GI50 [51]: 3.82 µM
TGI [51]: > 100 µM
GI50 [52]: 3.71 µM
TGI [52]: > 100 µM
GI50 [53]: 3.01 µM
TGI [53]: > 100 µM
GI50 [54]: 5.35 µM
TGI [54]: > 100 µM
GI50 [55]: 2.31 µM
TGI [55]: 79 µM
GI50 [56]: 1.44 µM
TGI [56]: 5.41 µM
GI50 [57]: 4.13 µM
TGI [57]: > 100 µM

— PubChem BioAssay (NCI)
